Test: xn = mol fraction of the nth substance listed
Details: for mass density / viscosity: 100 kPa, Liquid; for mass density: Vibrating tube method; for surface tension liquid-gas: Drop volume

OCC1CCCCC1 [cyclohexylmethanol] + CC12CC3CC(C1)CC(C)(C3)C2
Details | mass density [kg/m3] | surface tension liquid-gas [mN/m] | viscosity [mPa·s]
293.15 K, x1 = 0.1027 | 903.21 | – | 4.113
293.15 K, x1 = 0.1995 | 905.07 | – | 4.718
293.15 K, x1 = 0.3012 | 907.15 | – | 5.602
293.15 K, x1 = 0.4004 | 909.76 | – | 6.901
293.15 K, x1 = 0.4973 | 912.51 | – | 8.435
293.15 K, x1 = 0.6008 | 915.54 | – | 11.2
293.15 K, x1 = 0.7002 | 918.7 | – | 14.93
293.15 K, x1 = 0.7892 | 922.49 | – | 21.14
293.15 K, x1 = 0.9 | 925.92 | – | 28.69
293.15 K, x1 = 1 | 929.76 | – | 37.75
298.15 K, x1 = 0.1002 | – | 28.2 | –
298.15 K, x1 = 0.1027 | 899.59 | – | 3.615
298.15 K, x1 = 0.1995 | 901.44 | 28.36 | 4.111
298.15 K, x1 = 0.2996 | – | 28.56 | –
298.15 K, x1 = 0.3012 | 903.51 | – | 4.827
298.15 K, x1 = 0.4004 | 906.13 | 28.74 | 5.842
298.15 K, x1 = 0.4973 | 908.85 | 28.95 | 7.114
298.15 K, x1 = 0.6008 | 911.97 | 29.35 | 9.121
298.15 K, x1 = 0.7002 | 915.07 | 29.83 | 11.9
298.15 K, x1 = 0.7892 | 918.88 | – | 16.63
298.15 K, x1 = 0.7999 | – | 30.46 | –
298.15 K, x1 = 0.9 | 922.36 | 31.33 | 22.11
298.15 K, x1 = 1 | 926.25 | 32.43 | 28.67
303.15 K, x1 = 0.1027 | 895.96 | – | 3.204
303.15 K, x1 = 0.1995 | 897.78 | – | 3.618
303.15 K, x1 = 0.3012 | 899.85 | – | 4.192
303.15 K, x1 = 0.4004 | 902.45 | – | 5.005
303.15 K, x1 = 0.4973 | 905.16 | – | 5.993
303.15 K, x1 = 0.6008 | 908.3 | – | 7.528
303.15 K, x1 = 0.7002 | 911.44 | – | 9.63
303.15 K, x1 = 0.7892 | 915.23 | – | 13.35
303.15 K, x1 = 0.9 | 918.75 | – | 17.36
303.15 K, x1 = 1 | 922.71 | – | 22.34
308.15 K, x1 = 0.1027 | 892.31 | – | 2.857
308.15 K, x1 = 0.1995 | 894.11 | – | 3.194
308.15 K, x1 = 0.3012 | 896.17 | – | 3.666
308.15 K, x1 = 0.4004 | 898.75 | – | 4.326
308.15 K, x1 = 0.4973 | 901.46 | – | 5.097
308.15 K, x1 = 0.6008 | 904.6 | – | 6.204
308.15 K, x1 = 0.7002 | 907.77 | – | 7.907
308.15 K, x1 = 0.7892 | 911.57 | – | 10.82
308.15 K, x1 = 0.9 | 915.12 | – | 13.92
308.15 K, x1 = 1 | 919.14 | – | 17.57
313.15 K, x1 = 0.1027 | 888.65 | – | 2.56
313.15 K, x1 = 0.1995 | 890.42 | – | 2.841
313.15 K, x1 = 0.3012 | 892.47 | – | 3.229
313.15 K, x1 = 0.4004 | 895.03 | – | 3.764
313.15 K, x1 = 0.4973 | 897.73 | – | 4.377
313.15 K, x1 = 0.6008 | 900.87 | – | 5.311
313.15 K, x1 = 0.7002 | 904.09 | – | 6.578
313.15 K, x1 = 0.7892 | 907.87 | – | 8.883
313.15 K, x1 = 0.9 | 911.45 | – | 11.3
313.15 K, x1 = 1 | 915.53 | – | 14.09
318.15 K, x1 = 0.1027 | 884.98 | – | 2.305
318.15 K, x1 = 0.1995 | 886.71 | – | 2.539
318.15 K, x1 = 0.3012 | 888.75 | – | 2.859
318.15 K, x1 = 0.4004 | 891.29 | – | 3.299
318.15 K, x1 = 0.4973 | 893.98 | – | 3.787
318.15 K, x1 = 0.6008 | 897.11 | – | 4.529
318.15 K, x1 = 0.7002 | 900.37 | – | 5.508
318.15 K, x1 = 0.7892 | 904.14 | – | 7.34
318.15 K, x1 = 0.9 | 907.74 | – | 9.262
318.15 K, x1 = 1 | 911.88 | – | 11.43
323.15 K, x1 = 0.1027 | 881.29 | – | 2.085
323.15 K, x1 = 0.1995 | 882.99 | – | 2.28
323.15 K, x1 = 0.3012 | 885.01 | – | 2.546
323.15 K, x1 = 0.4004 | 887.53 | – | 2.911
323.15 K, x1 = 0.4973 | 890.21 | – | 3.302
323.15 K, x1 = 0.6008 | 893.33 | – | 3.896
323.15 K, x1 = 0.7002 | 896.61 | – | 4.604
323.15 K, x1 = 0.7892 | 900.37 | – | 6.145
323.15 K, x1 = 0.9 | 904 | – | 7.642
323.15 K, x1 = 1 | 908.19 | – | 9.354
328.15 K, x1 = 0.1027 | 877.59 | – | 1.894
328.15 K, x1 = 0.1995 | 879.24 | – | 2.057
328.15 K, x1 = 0.3012 | 881.25 | – | 2.279
328.15 K, x1 = 0.4004 | 883.75 | – | 2.58
328.15 K, x1 = 0.4973 | 886.41 | – | 2.898
328.15 K, x1 = 0.6008 | 889.51 | – | 3.375
328.15 K, x1 = 0.7002 | 892.81 | – | 3.992
328.15 K, x1 = 0.7892 | 896.56 | – | 5.076
328.15 K, x1 = 0.9 | 900.21 | – | 6.342
328.15 K, x1 = 1 | 904.45 | – | 7.766
333.15 K, x1 = 0.1027 | 873.88 | – | 1.727
333.15 K, x1 = 0.1995 | 875.48 | – | 2.105
333.15 K, x1 = 0.3012 | 877.47 | – | 2.048
333.15 K, x1 = 0.4004 | 879.94 | – | 2.3
333.15 K, x1 = 0.4973 | 882.58 | – | 2.56
333.15 K, x1 = 0.6008 | 885.67 | – | 2.946
333.15 K, x1 = 0.7002 | 888.98 | – | 3.443
333.15 K, x1 = 0.7892 | 892.71 | – | 4.253
333.15 K, x1 = 0.9 | 896.38 | – | 5.984
333.15 K, x1 = 1 | 900.67 | – | 6.462

Source: the NIST ThermoML archive (doi:10.1021/je500381c)
